Marks after values point to notes of the source that are not given here. Strand notation (5' to 3'): a small letter for the sugar, then the base; units joined by * are phosphorothioate-linked, units joined directly phosphodiester-linked; [ ] holds rarer units or linkages, { } end groups; capitals alone tell only the bases. k = constrained ethyl (cEt); [5mC] = 5-methylcytosine; d = 2'-deoxy (DNA)
Tested on: Yap1 mRNA
Assay: Antisense inhibition of human Yap1 in A-431 cells by cEt gapmers, single dose (Example 2, RTS4814)
Assay type: cell-based
Conditions: A-431 cells, 5,000 cells per well, free uptake, 2,000 nM modified oligonucleotide, approx. 48 hours, RTS4814, normalized to RIBOGREEN; Table 4; asterisk (*) = targets amplicon region of primer probe set
Procedure, shortened: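 Each 16-nucleoside gapmer (ten-deoxy gap, three-cEt wings) is tested once at 2,000 nM in A-431 cells by free uptake. Yap1 mRNA after about 48 hours is measured by quantitative RT-PCR and expressed relative to untreated control.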

In order of falling “YAP1 (% UTC)” value:
1. 716517 (antisense kT*kT*k[5mC]*dA*d[5mC]*dA*dA*d[5mC]*d[5mC]*d[5mC]*d[5mC]*d[5mC]*d[5mC]*k[5mC]*k[5mC]*k[5mC]) [Compound 716517]  53 % UTC
2. 716433 (kA*kG*k[5mC]*dA*dT*d[5mC]*dT*dG*dA*d[5mC]*dT*dT*d[5mC]*kT*kA*kA; antisense) [Compound 716433]  20 % UTC
3. 716502 (k[5mC]*kA*k[5mC]*dA*dG*dT*dG*dA*dT*dT*dG*d[5mC]*dA*kT*kT*kT; antisense) [Compound 716502]  11 % UTC

Same assay, conditions: Table 5; A-431 cells, 5,000 cells per well, free uptake, 2,000 nM modified oligonucleotide, approx. 48 hours; RTS4814; normalized to RIBOGREEN; Yap1 mRNA relative to untreated control cells

In order of falling “YAP1 (% UTC)” value:
1. 716350 (k[5mC]*kT*k[5mC]*dG*dG*dA*d[5mC]*d[5mC]*dT*dG*d[5mC]*dG*dG*k[5mC]*kG*k[5mC]; antisense) [Compound 716350]  99 % UTC
2. 716353 (kG*k[5mC]*kA*dT*d[5mC]*d[5mC]*d[5mC]*d[5mC]*d[5mC]*dG*d[5mC]*d[5mC]*d[5mC]*k[5mC]*kG*kG; antisense) [Compound 716353]  98 % UTC
3. 716374 (kG*kG*kT*d[5mC]*dA*dG*dT*dG*dT*d[5mC]*d[5mC]*d[5mC]*dA*kG*kG*kA; antisense) [Compound 716374]  54 % UTC

Same assay, conditions: Table 6; A-431 cells, 5,000 cells per well, free uptake, 2,000 nM modified oligonucleotide, approx. 48 hours; RTS4814; normalized to RIBOGREEN; Yap1 mRNA relative to untreated control cells

In order of falling “YAP1 (% UTC)” value:
1. 716495 (kG*kT*kT*dA*dT*dG*dA*dA*d[5mC]*d[5mC]*d[5mC]*dT*dT*kG*kA*kA; antisense) [Compound 716495]  58 % UTC
2. 716519 (antisense kG*kT*kT*dT*dA*dT*dA*dA*dA*dG*dT*dT*d[5mC]*kT*k[5mC]*kT) [Compound 716519]  57 % UTC
3. 716423 (kG*k[5mC]*kA*dA*dA*dA*dT*dA*dG*dA*dG*dG*dA*kT*kT*kA; antisense) [Compound 716423]  43 % UTC

Same assay, conditions: Table 18; A-431 cells, 5,000 cells per well, free uptake, 2,000 nM modified oligonucleotide, approx. 48 hours; RTS4814; normalized to RIBOGREEN; Yap1 mRNA as percent of untreated control

In the case of “1074436 (k[5mC]*kA*kT*dG*dA*dA*dG*d[5mC]*dA*dT*d[5mC]*dT*dG*kA*k[5mC]*kT; antisense) [Compound 1074436]”, the “YAP1 (% UTC)” value is reported as 31* % UTC.

Same assay, conditions: Table 19; A-431 cells, 5,000 cells per well, free uptake, 2,000 nM modified oligonucleotide, approx. 48 hours; RTS4814; normalized to RIBOGREEN; Yap1 mRNA as percent of untreated control

In order of falling “YAP1 (% UTC)” value:
1. 1074341 (antisense kA*kT*k[5mC]*d[5mC]*d[5mC]*dG*dG*dG*dA*dG*dA*dA*dG*kA*k[5mC]*kA) [Compound 1074341]  106 % UTC
2. 1076261 (k[5mC]*k[5mC]*k[5mC]*d[5mC]*dA*dA*d[5mC]*dA*dA*dG*dT*dT*d[5mC]*k[5mC]*kT*kG; antisense) [Compound 1076261]  39 % UTC
3. 1076037 (k[5mC]*kT*kT*dA*dA*dA*dT*dT*d[5mC]*dT*d[5mC]*dT*dT*kA*k[5mC]*kG; antisense) [Compound 1076037]  21 % UTC
4. 1075333 (kA*kG*kT*dT*dA*dA*d[5mC]*dA*dA*dA*dG*d[5mC]*dG*kG*kG*kT; antisense) [Compound 1075333]  14 % UTC
5. 1075813 (kA*k[5mC]*kT*dA*dA*dT*dA*dT*dG*d[5mC]*dA*dA*d[5mC]*kT*k[5mC]*kT; antisense) [Compound 1075813]  4 % UTC

Same assay, conditions: Table 20; Yap1 mRNA, percent of untreated control; 3-10-3 cEt gapmers targeting SEQ ID NO.: 1 and 2

In order of rising “YAP1 (% UTC)” value:
1. 1074758 (k[5mC]*kA*kG*dT*dT*dA*dA*dG*d[5mC]*dA*d[5mC]*dT*dT*kT*kT*kA; antisense) [Compound 1074758]  4 % UTC
2. 1076518 (antisense kG*kA*kT*dA*dA*dG*d[5mC]*dA*d[5mC]*d[5mC]*dA*d[5mC]*d[5mC]*kA*kT*kA) [Compound 1076518]  25 % UTC
3. 1074342 (antisense k[5mC]*kA*kT*d[5mC]*d[5mC]*d[5mC]*dG*dG*dG*dA*dG*dA*dA*kG*kA*k[5mC]) [Compound 1074342]  56 % UTC

Same assay, conditions: Table 21; Yap1 mRNA, percent of untreated control; 3-10-3 cEt gapmers targeting SEQ ID NO.: 1 and 2

In order of rising “YAP1 (% UTC)” value:
1. 1076295 (kG*kT*kA*dT*dA*dT*dT*dA*dG*dT*dG*d[5mC]*d[5mC]*k[5mC]*k[5mC]*k[5mC]; antisense) [Compound 1076295]  2 % UTC
2. 1074983 (antisense k[5mC]*kA*k[5mC]*d[5mC]*dT*dT*dT*dT*dA*dT*dT*dG*d[5mC]*k[5mC]*kA*kG) [Compound 1074983]  11 % UTC
3. 1076135 (k[5mC]*kA*kT*dA*dA*dT*dT*dG*dA*d[5mC]*dA*dG*dG*kT*kA*kT; antisense) [Compound 1076135]  14 % UTC
4. 1075463 (antisense k[5mC]*kT*kT*dA*dA*dT*d[5mC]*d[5mC]*dA*dA*dA*dG*d[5mC]*kT*kT*k[5mC]) [Compound 1075463]  34 % UTC

With “1074439 (k[5mC]*kT*kG*dT*dG*dA*d[5mC]*dA*dT*dG*dA*dA*dG*k[5mC]*kA*kT; antisense) [Compound 1074439]” the “YAP1 (% UTC)” value was 2* % UTC.

Same assay, conditions: Table 22; Yap1 mRNA as percent of untreated control; 3-10-3 cEt gapmers; single dose

In order of falling “YAP1 (% UTC)” value:
1. 1075976 (kA*kT*kT*dA*dA*dA*dA*dG*dT*d[5mC]*dG*dG*dG*k[5mC]*k[5mC]*kA; antisense) [Compound 1075976]  92 % UTC
2. 1075144 (antisense kA*k[5mC]*k[5mC]*d[5mC]*dT*dA*dT*dA*dT*d[5mC]*d[5mC]*dT*dA*kT*kA*kT) [Compound 1075144]  82 % UTC
3. 1074248 (antisense kG*kA*kT*d[5mC]*dG*dA*dT*dG*dT*dG*dA*dT*dT*kT*kA*kA) [Compound 1074248]  29 % UTC
4. 1075112 (antisense kA*kT*kA*dT*dA*dG*dG*dA*dA*dT*dA*dT*dG*kG*kG*kT) [Compound 1075112]  6 % UTC

Same assay, conditions: Table 23; Yap1 mRNA as percent of untreated control; 3-10-3 cEt gapmers; single dose

In the case of “1076233 (k[5mC]*k[5mC]*kA*dA*dT*dA*dA*dA*dG*d[5mC]*dA*dA*dG*kT*kA*kG; antisense) [Compound 1076233]”, the “YAP1 (% UTC)” value is reported as 13 % UTC.

Same assay, conditions: Table 24; Yap1 mRNA as percent of untreated control; 3-10-3 cEt gapmers targeting SEQ ID NO.: 1, and 2

In order of rising “YAP1 (% UTC)” value:
1. 1076330 (kG*kA*kA*dT*dT*dA*dT*dA*d[5mC]*dT*dG*dG*d[5mC]*kT*kA*k[5mC]; antisense) [Compound 1076330]  3 % UTC
2. 1075978 (kA*kG*kA*dT*dT*dA*dA*dA*dA*dG*dT*d[5mC]*dG*kG*kG*k[5mC]; antisense) [Compound 1075978]  11 % UTC
3. 1075658 (kG*kT*kA*dA*dA*dA*dA*dA*d[5mC]*dG*dG*dT*dT*kT*kT*kT; antisense) [Compound 1075658]  103 % UTC

Same assay, conditions: Table 25; Yap1 mRNA as percent of untreated control; 3-10-3 cEt gapmers targeting SEQ ID NO.: 1, and 2

In order of rising “YAP1 (% UTC)” value:
1. 1076523 (antisense kA*kT*kT*dT*dA*dT*dA*dT*d[5mC]*dA*dG*dG*dT*k[5mC]*kA*kA) [Compound 1076523]  5 % UTC
2. 1076363 (k[5mC]*kA*kT*dA*dA*dA*dA*dG*dT*d[5mC]*d[5mC]*dA*d[5mC]*kT*kA*kA; antisense) [Compound 1076363]  72 % UTC

Same assay, conditions: Table 32; Yap1 mRNA, percent of untreated control; 3-10-3 cEt gapmers targeting SEQ ID NO.: 1, and 2

In order of falling “YAP1 (% UTC)” value:
1. 1074322 (antisense kA*kG*kG*dG*d[5mC]*dT*dA*dA*d[5mC]*dT*d[5mC]*d[5mC]*dT*kG*kA*k[5mC]) [compound 1074322]  94 % UTC
2. 1076210 (kA*kT*kT*dT*dA*dT*dA*dT*dG*d[5mC]*dT*d[5mC]*d[5mC]*k[5mC]*kT*k[5mC]; antisense) [compound 1076210]  20 % UTC
3. 1074482 (kT*kA*kA*dT*dA*dT*dG*dG*dT*d[5mC]*dA*dT*dT*kT*kG*k[5mC]; antisense) [compound 1074482]  12 % UTC

Same assay, conditions: Table 33; Yap1 mRNA, percent of untreated control; 3-10-3 cEt gapmers targeting SEQ ID NO.: 1, and 2

In order of falling “YAP1 (% UTC)” value:
1. 1074131 (kG*kG*k[5mC]*d[5mC]*d[5mC]*d[5mC]*dG*d[5mC]*dA*dT*d[5mC]*d[5mC]*d[5mC]*k[5mC]*k[5mC]*kG; antisense) [compound 1074131]  72 % UTC
2. 1075027 (antisense kA*kA*kA*dT*dT*dT*dG*dA*dA*d[5mC]*dT*dG*d[5mC]*k[5mC]*k[5mC]*kA) [compound 1075027]  28 % UTC
3. 1074611 (DNA kT*kA*kG*d[5mC]*dT*dT*dA*dT*dA*dT*dT*dG*dA*kA*kG*kA) [compound 1074611]  19 % UTC

Same assay, conditions: Yap1 mRNA as percent of untreated control; A-431 cells; 3-10-3 cEt gapmers targeting SEQ ID NO.: 1, and 2; Table 30

In order of rising “YAP1 (% UTC)” value:
1. 1076208 (kG*kA*kG*dG*dA*dA*dT*dA*dT*dT*dA*d[5mC]*dA*kG*kA*k[5mC]; antisense) [compound 1076208]  15 % UTC
2. 1074832 (kG*k[5mC]*kG*dA*dG*dG*dA*dT*dA*dA*dA*dA*dT*k[5mC]*k[5mC]*kA; antisense) [compound 1074832]  17 % UTC
3. 1074512 (kG*kG*kA*dT*dA*d[5mC]*dA*dT*dT*d[5mC]*d[5mC]*dA*d[5mC]*kT*kA*k[5mC]; antisense) [compound 1074512]  64 % UTC
4. 1075920 (antisense kA*kA*kA*dG*dA*dA*dA*dG*d[5mC]*dT*dG*d[5mC]*dG*k[5mC]*kA*k[5mC]) [compound 1075920]  108 % UTC

Same assay, conditions: Yap1 mRNA as percent of untreated control; A-431 cells; 3-10-3 cEt gapmers targeting SEQ ID NO.: 1, and 2; Table 31

In order of falling “YAP1 (% UTC)” value:
1. 1075569 (kG*kT*kA*dG*dA*dA*dA*dG*dG*d[5mC]*dA*dT*dT*kA*kG*kA; antisense) [compound 1075569]  45 % UTC
2. 1076401 (antisense kT*k[5mC]*kT*dA*dA*dA*dG*dA*d[5mC]*dT*d[5mC]*dT*d[5mC]*kA*kT*kT) [compound 1076401]  31 % UTC

— patent US11214803B2, “Modulators of YAP1 expression” (Ionis Pharmaceuticals, Inc., priority 2019, dated 2022)
